Measured values: patent US10765657B2, “Selamectin for treatment of sea lice infestations” (priority 2013, dated 2020)

Columns and labels:
[1] = tested on: naïve sea lice, Lepeophtheirus salmonis; assay: Static 24 hour sea lice bioassay, naïve strain; conditions: 24 hours exposure, 0.2% DMSO in seawater, about 10-12° C.
naïve sea lice = assay: Prophylactic efficacy of medicated feed against sea lice challenge in fish; type: in vivo
Experimental: Experimental diets containing selamectin were administered to 15×2 m diameter tanks of 75 fish by voluntary feeding from Day 0 to Day 6. […] The study evaluated the three concentrations of test material in comparison to a negative control (placebo) and a positive control. Each group was run as triplicate tanks. In each group, sea lice were evaluated using a representative sample of 5 fish per tank on Day −1 (pre-treatment) and 10 fish per tank on days 10 and 30 (4 and 24 days post-treatment).
The prophylactic effect of treatment was determined by removing lice and using further sea lice challenges at intervals. All adult lice were removed from remaining fish following Day 30 and a further sea lice challenge took place on Day 37 (31 days post treatment) and lice counts and tissue samples taken from 10 fish per tank on Day 60 (53 days post treatment).
All adult lice were removed from remaining fish following Day 64 and 12 fish per tank were moved to 15×1 m diameter tanks. On Day 67 (61 days post-treatment) the fish in these 1 m tanks received a further sea lice challenge and on Day 90 (84 days post-treatment) lice counts and tissue samples were taken from 10 fish per tank.
On Day 76 (70 days post-treatment) the fish remaining in 2 m tanks received a further naïve sea lice challenge and on Day 99 (93 days post-treatment) lice counts and tissue samples were taken from 10 fish per tank.

[2] = tested on: emamectin benzoate resistant sea lice, Lepeophtheirus salmonis; assay: Static 24 hour sea lice bioassay, emamectin benzoate resistant strain; conditions: 24 hours exposure, 0.2% DMSO in seawater, about 10-12° C.

Molecule | Adult females EC50 [1] | Adult males EC50 [1] | prophylactic efficacy (naïve sea lice; 40 μg/kg/day oral in feed, Day 0 to Day 6, at 4.4 weeks) | prophylactic efficacy (naïve sea lice; 40 μg/kg/day oral in feed, Day 0 to Day 6, at 10 weeks) | prophylactic efficacy (naïve sea lice; 160 μg/kg/day oral in feed, Day 0 to Day 6, at 4.4 weeks) | prophylactic efficacy (naïve sea lice; 160 μg/kg/day oral in feed, Day 0 to Day 6, out to 10 weeks) | Adult females EC50 [2] | Adult males EC50 [2] | prophylactic efficacy (naïve sea lice; 50 μg/kg/day (commercially licensed value) oral in feed, at 4.4 weeks) | prophylactic efficacy (naïve sea lice; 50 μg/kg/day (commercially licensed value) oral in feed, out to 10 weeks)
CO[C@H]1C[C@H](O[C@@H]2/C(C)=C/C[C@@H]3C[C@@H](C[C@]4(CC[C@H](C)[C@@H](C5CCCCC5)O4)O3)OC(=O)[C@@H]3C=C(C)/C(=N/O)[C@H]4OC/C(=C\C=C\[C@@H]2C)[C@]43O)O[C@@H](C)[C@@H]1O [Selamectin, selamectin] | 10.68 ppb | 3.21 ppb | 99.6% | 68.4% | 100% | 98.5% | 16.91 ppb | 6.95 ppb |  | 
emamectin benzoate | 29 ppb | 112 ppb |  |  |  |  | 65 ppb | 202 ppb | 100% | 72.9%
